# Source: PMC6362004, “Minor sequence modifications in temporin B cause drastic changes in antibacterial potency and selectivity by fundamentally altering membrane activity” (Scientific Reports, 2019)
# Peptide text beside a SMILES is read from it.
# Key:
# [1] = tested on: EMR Staphylococcus aureus-16 NCTC 13277; assay type: cell-based; details: NCTC 13277, 18 h
# Method: (§1) The antibacterial activity of the peptides studied was assessed through a modified two-fold broth microdilution assay, as described before. Briefly, a two-fold dilution of peptide stock solutions was performed in either non-cation adjusted Müller-Hinton broth (MHB) or Tryptic Soy broth (TSB) in a 96-well polypropylene microtiter plate. Then, 100 µl of bacterial suspension (back diluted from overnight cultures to an A600 of 0.01) were added to 100 µl of peptide solution in each well of the plate. Growth and sterility controls were present for each experiment. The plate was incubated at 37 °C for 18 hours without shaking and the MIC was defined as the lowest concentration where no visible growth could be detected by measuring the absorbance (A600) on an Omega plate reader.
# [2] = tested on: Pseudomonas aeruginosa PAO1; assay type: cell-based; details: PAO1, 18 h
# Method: as §1
# [3] = tested on: MS Staphylococcus aureus NCTC 6571; assay type: cell-based; details: NCTC 6571, 18 h
# Method: as §1
# [4] = tested on: E. coli cytoplasmic membrane; details: cited from earlier work
# Text: Here we investigated whether a combined biophysical approach is capable of discriminating the species specific antibacterial mechanisms of action between three analogues of temporin B. Although structures for the three peptides solved in anionic SDS were noticeably different, when applied to model membranes, little difference in conformation could be discerned in the steady-state. To address this, we developed an approach using the Port-a-Patch® tool from Nanion Technologies (Munich, Germany) and correlated the findings obtained from patch-clamp analysis to the primary sequence and the biophys ...
# [5] = tested on: VS Enterococcus faecalis NCTC 775; assay type: cell-based; details: NCTC 775, 18 h
# Method: as §1
# [6] = tested on: VR Enterococcus faecalis NCTC 12201; assay type: cell-based; details: NCTC 12201, 18 h
# Method: as §1
# [7] = tested on: Pseudomonas aeruginosa NCTC 13437; assay type: cell-based; details: NCTC 13437, 18 h
# Method: as §1
# [8] = tested on: EMR Staphylococcus aureus−15 NCTC 13616; assay type: cell-based; details: NCTC 13616, 18 h
# Method: as §1
# [9] = tested on: Acinetobacter baumanii AYE; assay type: cell-based; details: 18 h
# Method: as §1
# [10] = tested on: Gram-negative bacteria; details: cited from earlier work
Compound,"MIC, peptide concentration [1]","MIC, peptide concentration [2]","MIC, peptide concentration [8]",also measured
CC[C@H](C)[C@H](NC(=O)[C@@H]1CCCN1C(=O)[C@H](CC(C)C)NC(=O)[C@@H](N)CC(C)C)C(=O)N[C@H](C(=O)NCC(=O)N[C@@H](CC(N)=O)C(=O)N[C@@H](CC(C)C)C(=O)N[C@@H](CC(C)C)C(=O)N[C@@H](CCCCN)C(=O)N[C@@H](CO)C(=O)N[C@@H](CC(C)C)C(=O)N[C@@H](CC(C)C)C(N)=O)C(C)C [Temporin B] (H-LLPIVGNLLKSLL-NH2),32 µg/mL,>128 µg/mL,,"MIC, peptide concentration [3]: 16 µg/mL"
LL-37: human antimicrobial peptide,,,,Time to permeabilization of the E. coli cytoplasmic membrane and induction of oxidative stress [4]: around 25 minutes
CC[C@H](C)[C@H](NC(=O)[C@@H]1CCCN1C(=O)[C@H](CC(C)C)NC(=O)[C@H](CC(C)C)NC(=O)[C@H](CCCCN)NC(=O)[C@@H](N)CCCCN)C(=O)N[C@H](C(=O)N[C@@H](C)C(=O)N[C@@H](CC(N)=O)C(=O)N[C@@H](CC(C)C)C(=O)N[C@@H](CC(C)C)C(=O)N[C@@H](CCCCN)C(=O)N[C@@H](CO)C(=O)N[C@@H](CC(C)C)C(=O)N[C@@H](CC(C)C)C(N)=O)C(C)C [Temporin B KKG6A] (H-KKLLPIVANLLKSLL-NH2),>128 µg/mL,,>128 µg/mL,"MIC, peptide concentration [5]: >128 µg/mL; MIC, peptide concentration [6]: >128 µg/mL; MIC, peptide concentration [7]: >128 µg/mL"
CC[C@H](C)[C@H](NC(=O)[C@@H]1CCCN1C(=O)[C@H](CC(C)C)NC(=O)[C@@H](N)Cc1ccccc1)C(=O)N[C@H](C(=O)NCC(=O)N[C@@H](CC(C)C)C(=O)N[C@@H](CC(C)C)C(=O)N[C@@H](CCCCN)C(=O)N[C@@H](CO)C(=O)N[C@@H](CC(C)C)C(=O)N[C@@H](CC(C)C)C(=O)N[C@@H](CCCCN)C(N)=O)C(C)C [Temporin B L1FK] (H-FLPIVGLLKSLLK-NH2),16 µg/mL,128 µg/mL,16 µg/mL,"MIC, peptide concentration [9]: 8 µg/mL"
temporin L,,,,MIC [10]: 2 to 20 µM
